Reference: patent US9475808B2, “Inhibitor compounds of phosphodiesterase type 10A” (AbbVie Deutschland GmbH & Co. KG, priority 2013, dated 2016)

Columns and labels:
PDE10A = PDE10A (UniProt Q9Y233); assay: Measurement of PDE activity (HTRF cAMP assay, recombinant enzyme); format: biochemical; conditions: 20 nM cyclic nucleotide substrate, 60 minutes at 29 C
Procedure: The recombinant PDE proteins are used in in vitro enzymatic reaction for measurement of PDE activity. These recombinant proteins, including PDE10A (human, rat and mouse PDE10) and isoforms of PDEs 1, 3, 4, and 5, were purchased from commercial vendor BPS Bioscience. The enzymatic activity of PDEs was determined by cAMP measurement kit from CisBio (IBA) using HTRF technology.
The PDE enzymatic reaction was carried out in assay buffer (20 mM Tris-HCl pH7.5, 10 mM MgCl2, 0.1% bovine serum albumin) containing enzyme and substrate. The PDE enzymes concentration ranged from 10 pM-250 pM, depending on each enzyme's specific activity. The substrate cyclic nucleotide (cAMP or cGMP) concentration used in the assay was 20 nM for PDE10, and 100 nM for other PDEs. The inhibitory effect of compound was determined by incubating various concentration of inhibitor in the enzymatic assay. Typically, compound was serial diluted in DMSO then further diluted in assay buffer. Next, the compound at varying concentration was mixed with PDE enzyme. The reaction was initiated by addition of cyclic nucleotide substrate, and incubated for 60 minutes at 29 C. The reaction was stopped by addition of lysis buffer from assay kit. The cAMP-d2 and anti-cAMP cryptate in the lysis buffer detected the level of cAMP left from the PDE hydrolysis reaction. The PDE activity is reversely correlated with the amount of cAMP left in the reaction and can be converted to the percent activity of an uninhibited control (100%). Thus, IC50 value of inhibitor can be obtained by plotting inhibitor concentration against PDE activity at that concentration.

[1] = Determination of the microsomal half-life / microsomal clearance, human liver microsomes; conditions: 0.5 μM test substance, 0.25 mg microsomal protein/ml, pH 7.4, 37° C., NADPH
Procedure: (§1) The test substances were incubated in a concentration of 0.5 μM as follows:
(§2) 0.5 μM test substance are preincubated together with liver microsomes from different species (from rat, human or other species) (0.25 mg of microsomal protein/ml) in 0.05 M potassium phosphate buffer of pH 7.4 in microtiter plates at 37° C. for 5 min. The reaction is started by adding NADPH (1 mg/mL). After 0, 5, 10, 15, 20 and 30 min, 50 μl aliquots are removed, and the reaction is immediately stopped and cooled with the same volume of acetonitrile. The samples are frozen until analyzed. The remaining concentration of undegraded test substance is determined by MSMS. The half-life (T½) is determined from the gradient of the signal of test substance/unit time plot, it being possible to calculate the half-life of the test substance, assuming first order kinetics, from the decrease in the concentration of the compound with time. The microsomal clearance (mCl) is calculated from mCl=ln 2/T½/(content of microsomal protein in mg/ml)×1000 [ml/min/mg]

[2] = Determination of the microsomal half-life / microsomal clearance, rat liver microsomes; conditions: 0.5 μM test substance, 0.25 mg microsomal protein/ml, pH 7.4, 37° C., NADPH
Procedure: as §1, §2

Row | Molecule | IC50 (PDE10A) | Human mCl [1] | Rat mCl [2]
1 | Cn1cc2c(c(N3CCOCC3)c1=O)C(=O)N(CCc1ccc3ccccc3n1)C2=O [Example 1, 5-Methyl-7-morpholin-4-yl-2-(2-quinolin-2-yl-ethyl)-5H-pyrrolo[3,4-c]pyridine-1,3,6-trione] | < 100 nM | ++ (++: <100 μl min^−1 mg^−1) | ++ (++: <100 μl min^−1 mg^−1)
2 | Cn1cc2c(c(N3CCOCC3)c1=O)CN(CCc1ccc3ccccc3n1)C2=O [Example 6, 5-Methyl-7-morpholin-4-yl-2-(2-quinolin-2-yl-ethyl)-1,2-dihydro-5H-pyrrolo[3,4-c]pyridine-3,6-dione] | > 500 nM | ++ (++: <100 μl min^−1 mg^−1) | ++ (++: <100 μl min^−1 mg^−1)
3 | CN1CCN(c2c3c(cn(C)c2=O)C(=O)N(CCc2ccc4ccccc4n2)C3)CC1 [Example 7, 5-Methyl-7-(4-methyl-piperazin-1-yl)-2-(2-quinolin-2-yl-ethyl)-1,2-dihydro-5H-pyrrolo[3,4-c]pyridine-3,6-dione] | > 500 nM | ++ (++: <100 μl min^−1 mg^−1) | +++ (+++ <10 μl min^−1 mg^−1)
4 | Cn1cc2c(c(N3CCOCC3)c1=O)C(=O)N(CCc1ccc3ccccc3n1)C2 [Example 9, 5-Methyl-7-morpholin-4-yl-2-(2-quinolin-2-yl-ethyl)-3,5-dihydro-2H-pyrrolo[3,4-c]pyridine-1,6-dione] | < 100 nM | ++ (++: <100 μl min^−1 mg^−1) | ++ (++: <100 μl min^−1 mg^−1)
5 | CN1CCN(c2c3c(cn(C)c2=O)CN(CCc2ccc4ccccc4n2)C3=O)CC1 [Example 10, 5-Methyl-7-(4-methyl-piperazin-1-yl)-2-(2-quinolin-2-yl-ethyl)-3,5-dihydro-2H-pyrrolo[3,4-c]pyridine-1,6-dione] |  | +++ (+++ <10 μl min^−1 mg^−1) | +++ (+++ <10 μl min^−1 mg^−1)
6 | Cn1cc2c(c(-c3ccncc3)c1=O)C(=O)N(CCc1ccc3ccccc3n1)C2 [Example 11, 5-Methyl-7-pyridin-4-yl-2-(2-quinolin-2-yl-ethyl)-3,5-dihydro-2H-pyrrolo[3,4-c]pyridine-1,6-dione] | 100 to 200 nM |  | 
7 | Cn1cc2c(c(N3CCS(=O)(=O)CC3)c1=O)C(=O)N(CCc1ccc3ccccc3n1)C2 [Example 12, 5-Methyl-7-(1,1-dioxo-thiomorpholin-4-yl)-2-(2-quinolin-2-yl-ethyl)-3,5-dihydro-2H-pyrrolo[3,4-c]pyridine-1,6-dione] | 100 to 200 nM | ++ (++: <100 μl min^−1 mg^−1) | +++ (+++ <10 μl min^−1 mg^−1)
8 | Cn1cc2c(c(-c3cccnc3)c1=O)C(=O)N(CCc1ccc3ccccc3n1)C2 [Example 13, 5-Methyl-7-pyridin-3-yl-2-(2-quinolin-2-yl-ethyl)-3,5-dihydro-2H-pyrrolo[3,4-c]pyridine-1,6-dione] | > 500 nM | ++ (++: <100 μl min^−1 mg^−1) | ++ (++: <100 μl min^−1 mg^−1)
9 | COc1ccc(Cn2cc3c(c(N4CCOCC4)c2=O)C(=O)N(CCc2ccc4ccccc4n2)C3)cc1 [Example 14, 5-(4-Methoxy-benzyl)-7-morpholin-4-yl-2-(2-quinolin-2-yl-ethyl)-3,5-dihydro-2H-pyrrolo[3,4-c]pyridine-1,6-dione] | < 100 nM | ∘ (∘: >220 μl min^−1 mg^−1) | + (+: 100-220 μl min^−1 mg^−1)
10 | O=C1c2c(c[nH]c(=O)c2N2CCOCC2)CN1CCc1ccc2ccccc2n1 [Example 15, 7-Morpholin-4-yl-2-(2-quinolin-2-yl-ethyl)-3,5-dihydro-2H-pyrrolo[3,4-c]pyridine-1,6-dione] | < 100 nM | ++ (++: <100 μl min^−1 mg^−1) | ++ (++: <100 μl min^−1 mg^−1)
11 | CC(C)n1cc2c(c(N3CCOCC3)c1=O)C(=O)N(CCc1ccc3ccccc3n1)C2 [Example 17, 5-Isopropyl-7-morpholin-4-yl-2-(2-quinolin-2-yl-ethyl)-3,5-dihydro-2H-pyrrolo[3,4-c]pyridine-1,6-dione] | < 100 nM | ++ (++: <100 μl min^−1 mg^−1) | ++ (++: <100 μl min^−1 mg^−1)
12 | Cn1cc2c(c(N3CCOCC3)c1=O)C(=O)N(CCc1nc3ccccc3n1C)C2 [Example 20, 5-Methyl-2-[2-(1-methyl-1H-benzoimidazol-2-yl)-ethyl]-7-morpholin-4-yl-3,5-dihydro-2H-pyrrolo[3,4-c]pyridine-1,6-dione] | < 100 nM | ++ (++: <100 μl min^−1 mg^−1) | ++ (++: <100 μl min^−1 mg^−1)
13 | Cn1cc2c(c(N3CCOCC3)c1=O)C(=O)N(CCc1ccc3ccccc3n1)C2(F)F [Example 35, 3,3-Difluoro-5-methyl-7-morpholin-4-yl-2-(2-quinolin-2-yl-ethyl)-3,5-dihydro-2H-pyrrolo[3,4-c]pyridine-1,6-dione] | < 100 nM |  | 

Results, then the molecule that gave them:

Row | IC50 (PDE10A) | Human mCl [1] | Rat mCl [2] | Molecule
14 | > 500 nM |  |  | 2-(2-Imidazo[1,2-a]pyridin-2-yl-ethyl)-5-methyl-7-morpholin-4-yl-3,5-dihydro-2H-pyrrolo[3,4-c]pyridine-1,6-dione [Example 23]
15 | > 500 nM |  |  | 5-Methyl-7-morpholin-4-yl-2-(2-[1,2,4]triazolo[1,5-a]pyridin-2-yl-ethyl)-5H-pyrrolo[3,4-c]pyridine-1,3,6-trione [Example 5]
16 | > 500 nM |  |  | Cn1cc2c(c(-c3ccncc3)c1=O)CN(CCc1ccc3ccccc3n1)C2=O [Example 8, 5-Methyl-7-pyridin-4-yl-2-(2-quinolin-2-yl-ethyl)-1,2-dihydro-5H-pyrrolo[3,4-c]pyridine-3,6-dione]
17 | < 100 nM | ++ (++: <100 μl min^−1 mg^−1) | ++ (++: <100 μl min^−1 mg^−1) | CCn1cc2c(c(N3CCOCC3)c1=O)C(=O)N(CCc1ccc3ccccc3n1)C2 [Example 16, 5-Ethyl-7-morpholin-4-yl-2-(2-quinolin-2-yl-ethyl)-3,5-dihydro-2H-pyrrolo[3,4-c]pyridine-1,6-dione]
18 | < 100 nM | ++ (++: <100 μl min^−1 mg^−1) | ++ (++: <100 μl min^−1 mg^−1) | COCCn1cc2c(c(N3CCOCC3)c1=O)C(=O)N(CCc1ccc3ccccc3n1)C2 [Example 18, 5-(2-Methoxy-ethyl)-7-morpholin-4-yl-2-(2-quinolin-2-yl-ethyl)-3,5-dihydro-2H-pyrrolo[3,4-c]pyridine-1,6-dione]
19 | < 100 nM | ++ (++: <100 μl min^−1 mg^−1) | +++ (+++ <10 μl min^−1 mg^−1) | O=C1c2c(cn(CCO)c(=O)c2N2CCOCC2)CN1CCc1ccc2ccccc2n1 [Example 19, 5-(2-Hydroxy-ethyl)-7-morpholin-4-yl-2-(2-quinolin-2-yl-ethyl)-3,5-dihydro-2H-pyrrolo[3,4-c]pyridine-1,6-dione]
20 | 200 to 500 nM | ++ (++: <100 μl min^−1 mg^−1) | ++ (++: <100 μl min^−1 mg^−1) | Cn1cc2c(c(-c3cccnc3)c1=O)C(=O)N(CCc1nc3ccccc3n1C)C2 [Example 21, 5-Methyl-2-[2-(1-methyl-1H-benzoimidazol-2-yl)-ethyl]-7-pyridin-3-yl-3,5-dihydro-2H-pyrrolo[3,4-c]pyridine-1,6-dione]
21 | > 500 nM |  |  | Cn1nccc1-c1c2c(cn(C)c1=O)CN(CCc1ccc3ccccc3n1)C2=O [Example 30, 5-Methyl-7-(2-methyl-2H-pyrazol-3-yl)-2-(2-quinolin-2-yl-ethyl)-3,5-dihydro-2H-pyrrolo[3,4-c]pyridine-1,6-dione]
